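96-well plates; 48 h exposure; 5 concentrations. Endpoints by linear interpolation between flanking doses. Not reached: highest tested concentration assigned. At the TGI there is no net growth.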
Assays:
Experiment in all cases: NCI tumour cell line growth inhibition, 48 h
MDA-N = system: MDA-N
SF-539 CNS = system: SF-539 CNS
SF-295 CNS = system: SF-295 CNS
UO-31 renal = system: UO-31 renal
A498 renal = system: A498 renal
MDA-MB-435 = system: MDA-MB-435
MALME-3M melanoma = system: MALME-3M melanoma
DU-145 prostate = system: DU-145 prostate
HT29 colon = system: HT29 colon
K-562 leukemia = system: K-562 leukemia
COLO 205 colon = system: COLO 205 colon
NCI-H23 lung = system: NCI-H23 lung
SF-268 CNS = system: SF-268 CNS
SNB-19 CNS = system: SNB-19 CNS
U251 CNS = system: U251 CNS
HOP-62 NSCLC = system: HOP-62 NSCLC
HCT-15 colon = system: HCT-15 colon
NCI/ADR-RES ovarian = system: NCI/ADR-RES ovarian
ACHN renal = system: ACHN renal
UACC-62 melanoma = system: UACC-62 melanoma
NCI-H522 lung = system: NCI-H522 lung
HL-60(TB) leukemia = system: HL-60(TB) leukemia
HOP-92 NSCLC = system: HOP-92 NSCLC
CAKI-1 renal = system: CAKI-1 renal
SK-MEL-2 melanoma = system: SK-MEL-2 melanoma
A549 NSCLC = system: A549 NSCLC
LOX IMVI melanoma = system: LOX IMVI melanoma
NCI-H226 lung = system: NCI-H226 lung
OVCAR-4 ovarian = system: OVCAR-4 ovarian
RXF 393 renal = system: RXF 393 renal
KM12 colon = system: KM12 colon
SNB-75 CNS = system: SNB-75 CNS
IGROV1 ovarian = system: IGROV1 ovarian
MOLT-4 leukemia = system: MOLT-4 leukemia
EKVX NSCLC = system: EKVX NSCLC
HCC-2998 colon = system: HCC-2998 colon
SK-MEL-5 melanoma = system: SK-MEL-5 melanoma
SK-OV-3 ovarian = system: SK-OV-3 ovarian
OVCAR-8 ovarian = system: OVCAR-8 ovarian
SW-620 colon = system: SW-620 colon
CCRF-CEM leukemia = system: CCRF-CEM leukemia
M14 melanoma = system: M14 melanoma
OVCAR-3 ovarian = system: OVCAR-3 ovarian
786-0 renal = system: 786-0 renal
MDA-MB-231 breast = system: MDA-MB-231 breast
T-47D breast = system: T-47D breast
HS 578T breast = system: HS 578T breast
RPMI-8226 leukemia = system: RPMI-8226 leukemia
SK-MEL-28 melanoma = system: SK-MEL-28 melanoma
SR leukemia = system: SR leukemia
MCF7 breast = system: MCF7 breast
NCI-H460 lung = system: NCI-H460 lung
TK-10 renal = system: TK-10 renal
PC-3 prostate = system: PC-3 prostate
UACC-257 melanoma = system: UACC-257 melanoma
HCT-116 colon = system: HCT-116 colon
SN12C renal = system: SN12C renal

CC(=O)O/C=C\OC1CCCC1
TGI (MDA-N): > 100 µM
TGI (SF-539 CNS): > 100 µM
TGI (SF-295 CNS): > 100 µM
TGI (UO-31 renal): > 100 µM
TGI (A498 renal): > 100 µM
TGI (MDA-MB-435): > 100 µM
TGI (MALME-3M melanoma): > 100 µM
TGI (DU-145 prostate): > 100 µM
TGI (HT29 colon): > 100 µM
TGI (K-562 leukemia): > 100 µM
TGI (COLO 205 colon): > 100 µM
TGI (NCI-H23 lung): > 100 µM
TGI (SF-268 CNS): > 100 µM
TGI (SNB-19 CNS): > 100 µM
TGI (U251 CNS): > 100 µM
TGI (HOP-62 NSCLC): > 100 µM
TGI (HCT-15 colon): > 100 µM
TGI (NCI/ADR-RES ovarian): > 100 µM
TGI (ACHN renal): > 100 µM
TGI (UACC-62 melanoma): > 100 µM
TGI (NCI-H522 lung): > 100 µM
TGI (HL-60(TB) leukemia): > 100 µM
TGI (HOP-92 NSCLC): > 100 µM
TGI (CAKI-1 renal): > 100 µM
TGI (SK-MEL-2 melanoma): > 100 µM
TGI (A549 NSCLC): > 100 µM
TGI (LOX IMVI melanoma): > 100 µM
TGI (NCI-H226 lung): > 100 µM
TGI (OVCAR-4 ovarian): > 100 µM
TGI (RXF 393 renal): > 100 µM
TGI (KM12 colon): > 100 µM
TGI (SNB-75 CNS): > 100 µM
TGI (IGROV1 ovarian): > 100 µM
TGI (MOLT-4 leukemia): > 100 µM
TGI (EKVX NSCLC): > 100 µM
TGI (HCC-2998 colon): > 100 µM
TGI (SK-MEL-5 melanoma): > 100 µM
TGI (SK-OV-3 ovarian): > 100 µM
TGI (OVCAR-8 ovarian): > 100 µM
TGI (SW-620 colon): > 100 µM
TGI (CCRF-CEM leukemia): > 100 µM
TGI (M14 melanoma): > 100 µM
TGI (OVCAR-3 ovarian): > 100 µM
TGI (786-0 renal): > 100 µM
TGI (MDA-MB-231 breast): > 100 µM
TGI (T-47D breast): > 100 µM
TGI (HS 578T breast): > 100 µM
TGI (RPMI-8226 leukemia): > 100 µM
TGI (SK-MEL-28 melanoma): > 100 µM
TGI (SR leukemia): > 100 µM
TGI (MCF7 breast): > 100 µM
TGI (NCI-H460 lung): > 100 µM
TGI (TK-10 renal): > 100 µM
TGI (PC-3 prostate): > 100 µM
TGI (UACC-257 melanoma): > 100 µM

Cc1ccc(S(=O)(=O)NCCSS(=O)(=O)c2ccc(C)cc2)cc1
TGI (MDA-N): 56.8 µM
TGI (SF-295 CNS): > 100 µM
TGI (UO-31 renal): 61.7 µM
TGI (A498 renal): 67.2 µM
TGI (MDA-MB-435): 52 µM
TGI (DU-145 prostate): > 100 µM
TGI (HT29 colon): 53.4 µM
TGI (K-562 leukemia): > 100 µM
TGI (COLO 205 colon): > 100 µM
TGI (NCI-H23 lung): > 100 µM
TGI (SF-268 CNS): 46.3 µM
TGI (SNB-19 CNS): > 100 µM
TGI (U251 CNS): 53.8 µM
TGI (HCT-15 colon): 37.8 µM
TGI (NCI/ADR-RES ovarian): 72.3 µM
TGI (ACHN renal): > 100 µM
TGI (HCT-116 colon): 28.3 µM
TGI (NCI-H522 lung): 38.5 µM
TGI (HOP-92 NSCLC): > 100 µM
TGI (A549 NSCLC): 63.5 µM
TGI (LOX IMVI melanoma): 53.5 µM
TGI (SN12C renal): 86.3 µM
TGI (NCI-H226 lung): 49.6 µM
TGI (OVCAR-4 ovarian): > 100 µM
TGI (RXF 393 renal): 99.3 µM
TGI (KM12 colon): 85.8 µM
TGI (SNB-75 CNS): 77.2 µM
TGI (MOLT-4 leukemia): > 100 µM
TGI (HCC-2998 colon): > 100 µM
TGI (SK-MEL-5 melanoma): 43.1 µM
TGI (SK-OV-3 ovarian): > 100 µM
TGI (OVCAR-8 ovarian): > 100 µM
TGI (SW-620 colon): 46.5 µM
TGI (CCRF-CEM leukemia): > 100 µM
TGI (MDA-MB-231 breast): > 100 µM
TGI (T-47D breast): 53.9 µM
TGI (HS 578T breast): > 100 µM
TGI (SK-MEL-28 melanoma): 76.6 µM
TGI (SR leukemia): 39 µM
TGI (MCF7 breast): 41 µM
TGI (NCI-H460 lung): > 100 µM
TGI (TK-10 renal): > 100 µM
TGI (PC-3 prostate): 94.8 µM
TGI (UACC-257 melanoma): > 100 µM

— PubChem BioAssay (NCI)
